Where a SMILES comes first, the peptide text is derived from it. Bridges are numbered along the chain shown (N, C = ends). [ ]: non-standard residue; d: D form. Oic = O=C(O)[C@@H]1C[C@@H]2CCCC[C@@H]2N1; tBuAla = CC(C)(C)C[C@H](N)C(=O)O; PEG4 = NCCOCCOCCOCCOCCC(=O)O; Pen = CC(C)(S)[C@H](N)C(=O)O; NMeC = CN[C@@H](CS)C(=O)O; Orn = NCCC[C@H](N)C(=O)O; Dap = NC[C@H](N)C(=O)O; PEG2 = NCCOCCOCCC(=O)O; Ahx = NCCCCCC(=O)O
Tests used:
[1] = target: human MASP1 (Homo sapiens (Human), UniProt P48740); test: Biochemical human MASP1 assay (FRET substrate); conditions: Average IC50; recombinant human MASP1; read-out: human MASP1 IC50
Sequence of human MASP1 (P48740 other isoform, or with tags, fused parts or gaps): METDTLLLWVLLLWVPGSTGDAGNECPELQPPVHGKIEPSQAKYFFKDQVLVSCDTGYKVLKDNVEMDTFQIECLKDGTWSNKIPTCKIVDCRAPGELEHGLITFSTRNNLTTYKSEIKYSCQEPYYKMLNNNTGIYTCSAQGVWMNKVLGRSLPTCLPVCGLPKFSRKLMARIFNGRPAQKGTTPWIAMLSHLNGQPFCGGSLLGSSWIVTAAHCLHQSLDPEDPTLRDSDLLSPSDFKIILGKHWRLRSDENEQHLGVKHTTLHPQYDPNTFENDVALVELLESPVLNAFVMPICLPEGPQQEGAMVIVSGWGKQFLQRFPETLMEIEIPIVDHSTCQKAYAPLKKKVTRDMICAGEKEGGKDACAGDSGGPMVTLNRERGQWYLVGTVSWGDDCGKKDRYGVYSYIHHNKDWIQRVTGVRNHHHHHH
Method in brief: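 IC50 derived from % inhibition versus compound concentration, with fluorescence increase read at 320/420 nm after 60-120 min at 32 C. Enzyme: HEK293-secreted, His-tagged human MASP1 fragment 297-699 at 20 nM in HEPES pH 8,0 buffer with NaCl, CHAPS, glutathione; substrate ABZ-peptide-Lys(Dnp)-NH2 added as 20 μM solution.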

[2] = target: human MASP2 (Homo sapiens (Human), UniProt O00187); test: Biochemical human MASP2 assay (FRET substrate); conditions: Average IC50; recombinant human MASP2; read-out: human MASP2 IC50
Sequence of human MASP2 (O00187 other isoform, or with tags, fused parts or gaps): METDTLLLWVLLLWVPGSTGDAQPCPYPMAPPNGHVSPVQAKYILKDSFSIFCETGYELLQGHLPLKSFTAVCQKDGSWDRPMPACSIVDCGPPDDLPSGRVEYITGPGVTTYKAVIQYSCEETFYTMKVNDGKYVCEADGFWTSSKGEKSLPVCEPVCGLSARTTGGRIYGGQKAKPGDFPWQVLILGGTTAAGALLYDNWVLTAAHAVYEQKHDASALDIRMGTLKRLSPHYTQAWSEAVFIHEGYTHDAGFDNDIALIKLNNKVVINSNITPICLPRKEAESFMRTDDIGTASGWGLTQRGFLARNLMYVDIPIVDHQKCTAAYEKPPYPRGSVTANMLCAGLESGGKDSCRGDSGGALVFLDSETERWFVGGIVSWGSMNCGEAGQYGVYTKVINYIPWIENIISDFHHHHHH
Method in brief: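 IC50 came from % inhibition across compound concentrations, with fluorescence (ex 340 nm, em 490 nm) read after 60-120 min at 32 C. Substrate was a DABCYL FRET peptide, added as a 60 μM solution, cleaved by HEK293-expressed, Ni-NTA-purified mature recombinant human MASP2.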

[3] = tested on: Human C3-DEPOSITION SERUM; test: C3 deposition assay, human serum on mannan-coated plates; format: biochemical; conditions: Average IC50, read-out: Human C3-DEPOSITION SERUM IC50
Protocol: 3. C3 Deposition Assay (Human, Rat, Mouse, Dog, Pig))
The C3 deposition assay was conducted essentially as described (reference). Multiwell plates (Greiner-Nunc 384 Maxi Sorp #464718) were coated over night with Mannan from Saccharomyces cerevisiae (Sigma M7504, 10 μg/mL in 0.05 M carbonate-bicarbonate buffer, pH 9.6) at 4° C. Wells were washed three times with TBS and subsequently incubated for 2 hours with 50 μL of 1% bovine serum albumin (BSA) in Tris-buffered saline (TBS) at 37° C. in order to block non-specific binding. After this step and each of the following incubation steps wells were washed three times with C3 wash buffer (TBS; 0.05% Tween 20; 5 mM CaCl2). […] When appropriately developed the color reaction was stopped by addition of 25 μL of stop solution (Sigma S5814) and quantified on a photometer by measuring absorption at a wavelength of 450 nm. Antibodies were diluted in C3 wash buffer supplemented with 0.5% BSA.

SMILES	IC50 [1] [nM]	IC50 [2] [nM]	IC50 [3] [nM]
CC[C@H](C)[C@@H]1NC(=O)[C@H](CN)NC(=O)[C@@H]2CCCN2C(=O)[C@H]([C@@H](C)CC)NC(=O)[C@H]2NC(=O)[C@H]([C@@H](C)CC)NC(=O)[C@@H]3CCCN3C(=O)[C@@H]3CCCN3C(=O)[C@H](CC(C)(C)C)NC(=O)[C@H](CO)NC(=O)[C@H](CCCNC(=N)N)NC(=O)[C@H](CO)NC(=O)[C@H](CSSC2(C)C)NC1=O [Example 55, N-{3-[(6S,9S,12S,15S,18R,21S,24S,26aS,32S,35R,38S,40aS,45aS)-24-(aminomethyl)-21,32,38-tri[(2S)-butan-2-yl]-6-(2,2-dimethylpropyl)-9,15-bis(hydroxymethyl)-46,46-dimethyl-5,8,11,14,17,20,23,26,31,34,37,40,45-tridecaoxotetratetracontahydro-1H-18,35-(methanodithiomethano)tripyrrolo[1,2-a:1′,2′-d:1″,2″-p][1,4,7,10,13,16,19,22,25,28,31,34,37]tridecaazacyclononatriacontin-12-yl]propyl}guanidine] (cyclo(CSRS[tBuAla]PPI[Pen]IP[Dap]I); disulfide 1-9)	46	900	382
CC[C@H](C)[C@@H]1NC(=O)CNC(=O)CCOCCOCCOCCOCCNC(=O)[C@H](CC(=O)O)NC(=O)[C@@H]2CCCN2C(=O)[C@H]([C@@H](C)CC)NC(=O)[C@@H]2CSSC[C@H](NC1=O)C(=O)N[C@@H](CO)C(=O)N[C@@H](CCCNC(=N)N)C(=O)N[C@@H](CO)C(=O)N[C@@H](CC(C)C)C(=O)N1CCC[C@H]1C(=O)N1CCC[C@H]1C(=O)N[C@@H]([C@@H](C)CC)C(=O)N2 [Example 14] (cyclo(CIPD[PEG4]GICSRSLPPI); disulfide 1-8)	170	240	
CC[C@H](C)[C@@H]1NC(=O)[C@@H](C)NC(=O)CNC(=O)CCCCCNC(=O)CC[C@@H](C(N)=O)NC(=O)[C@@H]2CCCN2C(=O)[C@H]([C@@H](C)CC)NC(=O)[C@H]2NC(=O)[C@H]([C@@H](C)CC)NC(=O)[C@@H]3C[C@@H]4CCCC[C@@H]4N3C(=O)[C@@H]3CCCN3C(=O)[C@H](CC(C)C)NC(=O)[C@H](CO)NC(=O)[C@H](CCCNC(=N)N)NC(=O)[C@H](CO)NC(=O)[C@H](CSSC2(C)C)NC1=O [Example 84] ([Ahx]G[dA]ICSRSLP[Oic]I[Pen]IPE-NH2; disulfide 5-13; lactam N-16)	15	87	
CC[C@H](C)[C@@H]1NC(=O)[C@@H](N)CCCNC(=O)[C@@H]2CCCN2C(=O)[C@H]([C@@H](C)CC)NC(=O)[C@H]2NC(=O)[C@H]([C@@H](C)CC)NC(=O)[C@@H]3CCCN3C(=O)[C@@H]3CCCN3C(=O)[C@H](CC(C)(C)C)NC(=O)[C@H](CO)NC(=O)[C@H](CCCNC(=N)N)NC(=O)[C@H](CO)NC(=O)[C@H](CSSC2(C)C)NC1=O [Example 71, N-{3-[(6S,9S,12S,15S,18R,21S,24S,29aS,35S,38R,41S,43aS,48aS)-24-amino-21,35,41-tri[(2S)-butan-2-yl]-6-(2,2-dimethylpropyl)-9,15-bis(hydroxymethyl)-49,49-dimethyl-5,8,11,14,17,20,23,29,34,37,40,43,48-tridecaoxohexatetracontahydro-1H,5H-18,38-(methanodithiomethano)tripyrrolo[2,1-c:2′,1′-o:2″,1″-r][1,4,7,10,13,16,19,22,25,28,31,34,37]tridecaazacyclodotetracontin-12-yl]propyl}guanidine] (H-[Orn]ICSRS[tBuAla]PPI[Pen]IP; lactam 1-C; disulfide 3-11)	21	24	
CC[C@H](C)[C@@H]1NC(=O)CNC(=O)CNC(=O)[C@H](CC(=O)O)NC(=O)[C@@H]2CCCN2C(=O)[C@H]([C@@H](C)CC)NC(=O)[C@@H]2CSSC[C@H](NC1=O)C(=O)N[C@@H](CO)C(=O)N[C@@H](CCCNC(=N)N)C(=O)N[C@@H](CO)C(=O)N[C@@H](CC(C)C)C(=O)N1CCC[C@H]1C(=O)N1CCC[C@H]1C(=O)N[C@@H]([C@@H](C)CC)C(=O)N2 [Example 15, [(6S,9S,12S,15S,18R,21S,30S,32aS,38S,41R,44S,46aS,51aS)-21,38,44-tri[(2S)-butan-2-yl]-12-(3-carbamimidamidopropyl)-9,15-bis(hydroxymethyl)-6-(2-methylpropyl)-5,8,11,14,17,20,23,26,29,32,37,40,43,46,51-pentadecaoxopentacontahydro-1H-18,41-(methanodithiomethano)tripyrrolo[1,2-a:1′,2′-d:1″,2″-p][1,4,7,10,13,16, 19,22,25,28,31,34,37,40,43]pentadecaazacyclopentatetracontin-30-yl]acetic acid] (cyclo(CIPDGGICSRSLPPI); disulfide 1-8)	120	300	
CC[C@H](C)[C@@H]1NC(=O)CNC(=O)CNC(=O)[C@H](C)NC(=O)[C@@H](CC(=O)O)NC(=O)[C@@H]2CCCN2C(=O)[C@H]([C@@H](C)CC)NC(=O)[C@@H]2CSSC[C@H](NC1=O)C(=O)N[C@@H](CO)C(=O)N[C@@H](CCCNC(=N)N)C(=O)N[C@@H](CO)C(=O)N[C@@H](CC(C)(C)C)C(=O)N1CCC[C@H]1C(=O)N1CCC[C@H]1C(=O)N[C@@H]([C@@H](C)CC)C(=O)N2C [Example 47] (cyclo(AGGICSRS[tBuAla]PPI[NMeC]IP[dD]); disulfide 5-13)	8.2	66	
CC[C@H](C)[C@@H]1NC(=O)CNC(=O)CCOCCOCCNC(=O)[C@H](CC(=O)O)NC(=O)[C@@H]2CCCN2C(=O)[C@H]([C@@H](C)CC)NC(=O)[C@@H]2CSSC[C@H](NC1=O)C(=O)N[C@@H](CO)C(=O)N[C@@H](CCCNC(=N)N)C(=O)N[C@@H](CO)C(=O)N[C@@H](CC(C)C)C(=O)N1CCC[C@H]1C(=O)N1CCC[C@H]1C(=O)N[C@@H]([C@@H](C)CC)C(=O)N2 [Example 24] (cyclo(CIPD[PEG2]GICSRSLPPI); disulfide 1-8)	110	210	
CC[C@H](C)[C@@H]1NC(=O)CNC(=O)[C@@H](N)CCCCNC(=O)[C@H](CC(=O)O)NC(=O)[C@@H]2CCCN2C(=O)[C@H]([C@@H](C)CC)NC(=O)[C@@H]2CSSC[C@H](NC1=O)C(=O)N[C@@H](CO)C(=O)N[C@@H](CCCNC(=N)N)C(=O)N[C@@H](CO)C(=O)N[C@@H](CC(C)C)C(=O)N1CCC[C@H]1C(=O)N1CCC[C@H]1C(=O)N[C@@H]([C@@H](C)CC)C(=O)N2 [Example 22] (H-KGICSRSLPPICIPD; lactam 1-C; disulfide 4-12)	190	91	
CC[C@H](C)[C@@H]1NC(=O)CNC(=O)[C@@H](N)CCC(=O)NCCCC[C@@H](C(N)=O)NC(=O)[C@@H]2CCCN2C(=O)[C@H]([C@@H](C)CC)NC(=O)[C@H]2NC(=O)[C@H]([C@@H](C)CC)NC(=O)[C@@H]3C[C@@H]4CCCC[C@@H]4N3C(=O)[C@@H]3CCCN3C(=O)[C@H](CC(C)C)NC(=O)[C@H](CO)NC(=O)[C@H](CCCNC(=N)N)NC(=O)[C@H](CO)NC(=O)[C@H](CSSC2(C)C)NC1=O [Example 90] (H-EGICSRSLP[Oic]I[Pen]IPK-NH2; lactam 1-15; disulfide 4-12)	9.8	110	
CC[C@H](C)[C@@H]1NC(=O)CNC(=O)CCCCCNC(=O)[C@@H](CC(=O)O)NC(=O)[C@@H]2CCCN2C(=O)[C@H]([C@@H](C)CC)NC(=O)[C@@H]2CSSC[C@H](NC1=O)C(=O)N[C@@H](CO)C(=O)N[C@@H](CCCNC(=N)N)C(=O)N[C@@H](CO)C(=O)N[C@@H](CC(C)C)C(=O)N1CCC[C@H]1C(=O)N1CCC[C@H]1C(=O)N[C@@H]([C@@H](C)CC)C(=O)N2 [Example 16, [(6S,9S,12S,15S,18R,21S,34R,36aS,42S,45R,48S,50aS,55aS)-21,42,48-tri[(2S)-butan-2-yl]-12-(3-carbamimidamidopropyl)-9,15-bis(hydroxymethyl)-6-(2-methylpropyl)-5,8,11,14,17,20,23,26,33,36,41,44,47,50,55-pentadecaoxotetrapentacontahydro-1H-18,45-(methanodithiomethano)tripyrrolo[2,1-f:2′,1′-r:2″,1″-u][1,4,7,10,13,16,19,22,25,28,31,34,37,40,43]pentadecaazacyclononatetracontin-34-yl]acetic acid] (cyclo([Ahx]GICSRSLPPICIP[dD]); disulfide 4-12)	150	370	

Source: patent publication US20240010684A1, “MASP INHIBITORY COMPOUNDS AND USES THEREOF” (BAYER AKTIENGESELLSCHAFT, priority 2020, published 2024)
